Source: patent publication US11767310B2, “Nicotinamide RIPK1 inhibitors” (AbbVie Inc., priority 2021, dated 2023)
Read-outs that look alike come from different tables or passages of the source.

Columns and labels:
Assay in all cases: Kinase binding screen
Conditions in all cases: read-out: Percent Control at 100 nM Compound Concentration
[1] = target: PRKX (Homo sapiens (Human), UniProt P51817)
[2] = target: PYK2 (Homo sapiens (Human), UniProt Q14289)
[3] = target: TNK2 (Homo sapiens (Human), UniProt Q07912)
[4] = target: JNK2 (Homo sapiens (Human), UniProt P45984)
[5] = target: WEE2 (Homo sapiens (Human), UniProt P0C1S8)
[6] = target: LOK (Homo sapiens (Human), UniProt O94804)
[7] = target: MEK5 (Homo sapiens (Human), UniProt Q13163)
[8] = target: RIPK1 (Homo sapiens (Human), UniProt Q13546)
[9] = target: NDR1 (Homo sapiens (Human), UniProt Q15208)
[10] = target: OSR1 (Homo sapiens (Human), UniProt O95747)
[11] = target: DYRK1B (Homo sapiens (Human), UniProt Q9Y463)
[12] = target: DYRK2 (Homo sapiens (Human), UniProt Q92630)
[13] = target: EGFR(S752-I759del) (Homo sapiens (Human), UniProt P00533, DEL752-759)
[14] = target: PIK3CA(H1047L) (Homo sapiens (Human), UniProt P42336, H1047L)
[15] = target: EGFR(G719C) (Homo sapiens (Human), UniProt P00533, G719C)
[16] = target: CLK1 (Homo sapiens (Human), UniProt P49759)
[17] = target: EPHA2 (Homo sapiens (Human), UniProt P29317)
[18] = target: CSNK1A1 (Homo sapiens (Human), UniProt P48729)
[19] = target: DMPK2 (Homo sapiens (Human), UniProt Q6DT37)
[20] = target: WNK4 (Homo sapiens (Human), UniProt Q96J92)
[21] = target: BMPR2 (Homo sapiens (Human), UniProt Q13873)
[22] = target: YSK4 (Homo sapiens (Human), UniProt Q56UN5)
[23] = target: PIK3CA(C420R) (Homo sapiens (Human), UniProt P42336, C420R)
[24] = target: KIT(V559D,V654A) (Homo sapiens (Human), UniProt P10721, V559D/V654A)
[25] = target: RPS6KA4(Kin.Dom.2-C-terminal) (Homo sapiens (Human), UniProt O75676)
[26] = target: TGFBR2 (Homo sapiens (Human), UniProt P37173)
[27] = target: PLK2 (Homo sapiens (Human), UniProt Q9NYY3)
[28] = target: MET(Y1235D) (Homo sapiens (Human), UniProt P08581, Y1235D)

JNK2, sequence (P45984 whole entry): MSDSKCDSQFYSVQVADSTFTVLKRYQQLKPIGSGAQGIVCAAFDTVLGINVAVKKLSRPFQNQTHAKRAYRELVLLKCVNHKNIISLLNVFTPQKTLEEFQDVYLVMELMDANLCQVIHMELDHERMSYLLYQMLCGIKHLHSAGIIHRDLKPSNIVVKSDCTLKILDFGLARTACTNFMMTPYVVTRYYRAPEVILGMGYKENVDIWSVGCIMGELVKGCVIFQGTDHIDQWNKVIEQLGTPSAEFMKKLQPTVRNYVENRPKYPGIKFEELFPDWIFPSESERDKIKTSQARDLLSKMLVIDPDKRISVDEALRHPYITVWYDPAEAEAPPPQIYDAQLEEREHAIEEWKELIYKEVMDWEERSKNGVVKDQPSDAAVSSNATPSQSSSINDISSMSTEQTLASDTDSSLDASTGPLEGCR
LOK, sequence (O94804 whole entry): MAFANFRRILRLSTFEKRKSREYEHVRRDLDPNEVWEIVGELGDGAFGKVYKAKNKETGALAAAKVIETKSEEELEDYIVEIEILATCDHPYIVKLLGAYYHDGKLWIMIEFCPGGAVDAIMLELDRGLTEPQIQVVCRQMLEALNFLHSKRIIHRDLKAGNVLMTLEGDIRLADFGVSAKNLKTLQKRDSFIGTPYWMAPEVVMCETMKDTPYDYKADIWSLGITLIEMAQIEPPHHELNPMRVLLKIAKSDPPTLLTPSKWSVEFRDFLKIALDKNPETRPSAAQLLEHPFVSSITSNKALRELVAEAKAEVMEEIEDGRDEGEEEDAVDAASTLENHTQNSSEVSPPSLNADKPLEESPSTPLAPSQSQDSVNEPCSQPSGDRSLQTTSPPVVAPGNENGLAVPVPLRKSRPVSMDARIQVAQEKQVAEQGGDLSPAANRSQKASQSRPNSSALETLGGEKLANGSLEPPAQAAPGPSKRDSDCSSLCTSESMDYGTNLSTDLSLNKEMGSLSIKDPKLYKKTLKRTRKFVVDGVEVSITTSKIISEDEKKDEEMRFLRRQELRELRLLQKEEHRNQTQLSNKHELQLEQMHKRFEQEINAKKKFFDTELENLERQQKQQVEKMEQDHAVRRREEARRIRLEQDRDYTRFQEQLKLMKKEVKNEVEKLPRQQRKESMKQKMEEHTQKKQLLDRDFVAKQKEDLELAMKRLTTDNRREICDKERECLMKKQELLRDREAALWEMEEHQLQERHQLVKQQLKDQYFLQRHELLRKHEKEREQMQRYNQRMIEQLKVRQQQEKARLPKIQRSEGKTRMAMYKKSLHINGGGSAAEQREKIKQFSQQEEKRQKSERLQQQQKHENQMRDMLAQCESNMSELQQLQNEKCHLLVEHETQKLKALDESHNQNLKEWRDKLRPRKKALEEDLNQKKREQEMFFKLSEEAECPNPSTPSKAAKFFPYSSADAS
EGFR(G719C), sequence (P00533 25-1210 G719C): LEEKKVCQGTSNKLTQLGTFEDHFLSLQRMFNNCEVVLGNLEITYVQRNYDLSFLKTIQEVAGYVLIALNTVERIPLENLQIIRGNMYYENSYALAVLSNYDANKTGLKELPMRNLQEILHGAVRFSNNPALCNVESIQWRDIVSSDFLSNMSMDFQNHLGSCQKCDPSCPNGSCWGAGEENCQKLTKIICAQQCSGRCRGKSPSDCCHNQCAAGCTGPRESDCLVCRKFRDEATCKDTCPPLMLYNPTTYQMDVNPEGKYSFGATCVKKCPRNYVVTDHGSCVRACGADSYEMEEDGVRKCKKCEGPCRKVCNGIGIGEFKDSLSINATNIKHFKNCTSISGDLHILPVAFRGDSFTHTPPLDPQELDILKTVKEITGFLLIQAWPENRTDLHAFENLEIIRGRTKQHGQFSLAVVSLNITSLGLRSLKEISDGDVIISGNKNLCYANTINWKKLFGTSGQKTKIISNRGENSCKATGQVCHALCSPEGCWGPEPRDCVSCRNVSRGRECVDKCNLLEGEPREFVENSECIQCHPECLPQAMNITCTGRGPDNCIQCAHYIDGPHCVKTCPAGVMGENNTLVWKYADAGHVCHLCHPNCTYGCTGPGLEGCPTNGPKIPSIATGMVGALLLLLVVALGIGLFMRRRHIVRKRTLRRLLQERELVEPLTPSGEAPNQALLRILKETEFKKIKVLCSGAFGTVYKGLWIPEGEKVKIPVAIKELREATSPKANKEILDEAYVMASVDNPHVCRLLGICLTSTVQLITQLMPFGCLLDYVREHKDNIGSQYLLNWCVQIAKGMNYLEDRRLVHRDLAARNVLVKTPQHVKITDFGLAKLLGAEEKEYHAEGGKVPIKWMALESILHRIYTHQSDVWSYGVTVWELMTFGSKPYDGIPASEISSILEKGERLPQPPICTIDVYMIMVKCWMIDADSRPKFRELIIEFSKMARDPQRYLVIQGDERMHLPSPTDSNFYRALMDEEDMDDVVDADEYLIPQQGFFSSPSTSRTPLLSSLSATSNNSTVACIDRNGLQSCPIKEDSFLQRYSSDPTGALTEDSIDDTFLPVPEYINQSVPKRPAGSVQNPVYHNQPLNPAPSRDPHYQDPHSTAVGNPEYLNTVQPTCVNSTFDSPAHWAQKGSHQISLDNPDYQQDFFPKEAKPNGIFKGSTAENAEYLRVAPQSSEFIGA
EPHA2, sequence (P29317 24-976): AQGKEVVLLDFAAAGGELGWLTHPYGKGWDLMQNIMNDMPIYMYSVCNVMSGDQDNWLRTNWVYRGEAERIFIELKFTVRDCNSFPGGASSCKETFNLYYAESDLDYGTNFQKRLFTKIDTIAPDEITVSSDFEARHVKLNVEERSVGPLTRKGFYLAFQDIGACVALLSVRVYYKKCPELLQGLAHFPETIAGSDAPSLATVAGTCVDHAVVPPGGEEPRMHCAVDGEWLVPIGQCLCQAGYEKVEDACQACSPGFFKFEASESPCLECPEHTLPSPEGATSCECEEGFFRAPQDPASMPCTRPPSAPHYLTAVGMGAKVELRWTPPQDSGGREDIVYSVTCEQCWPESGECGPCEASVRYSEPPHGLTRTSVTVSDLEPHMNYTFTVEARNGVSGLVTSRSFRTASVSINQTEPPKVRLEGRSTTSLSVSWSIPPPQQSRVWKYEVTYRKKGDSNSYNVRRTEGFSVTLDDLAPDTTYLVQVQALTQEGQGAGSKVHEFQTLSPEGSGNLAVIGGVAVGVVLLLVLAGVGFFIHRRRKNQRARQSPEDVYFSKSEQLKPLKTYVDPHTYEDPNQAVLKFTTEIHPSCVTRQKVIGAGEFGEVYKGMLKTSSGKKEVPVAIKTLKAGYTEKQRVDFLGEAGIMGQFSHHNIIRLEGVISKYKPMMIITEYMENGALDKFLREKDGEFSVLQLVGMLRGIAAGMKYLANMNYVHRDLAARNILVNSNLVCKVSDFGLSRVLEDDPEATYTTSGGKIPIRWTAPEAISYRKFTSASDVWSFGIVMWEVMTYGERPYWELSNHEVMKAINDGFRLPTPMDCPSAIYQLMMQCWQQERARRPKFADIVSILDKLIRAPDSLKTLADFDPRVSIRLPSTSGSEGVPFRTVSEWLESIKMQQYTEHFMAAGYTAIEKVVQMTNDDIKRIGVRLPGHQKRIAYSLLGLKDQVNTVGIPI
WEE2, sequence (P0C1S8 whole entry): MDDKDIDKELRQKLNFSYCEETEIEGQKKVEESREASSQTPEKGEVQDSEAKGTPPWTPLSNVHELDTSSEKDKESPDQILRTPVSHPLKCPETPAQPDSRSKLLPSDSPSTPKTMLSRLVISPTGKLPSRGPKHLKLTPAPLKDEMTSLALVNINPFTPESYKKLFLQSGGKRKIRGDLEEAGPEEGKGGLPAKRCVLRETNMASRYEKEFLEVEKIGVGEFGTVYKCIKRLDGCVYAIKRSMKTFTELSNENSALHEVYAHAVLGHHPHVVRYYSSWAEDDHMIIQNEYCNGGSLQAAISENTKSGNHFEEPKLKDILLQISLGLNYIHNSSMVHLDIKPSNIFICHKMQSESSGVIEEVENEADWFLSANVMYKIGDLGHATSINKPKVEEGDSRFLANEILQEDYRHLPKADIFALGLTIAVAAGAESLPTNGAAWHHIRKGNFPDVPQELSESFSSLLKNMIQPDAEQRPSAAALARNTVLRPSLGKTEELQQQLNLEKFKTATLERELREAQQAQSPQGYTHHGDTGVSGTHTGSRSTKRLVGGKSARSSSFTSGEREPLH
CLK1, sequence (P49759 whole entry): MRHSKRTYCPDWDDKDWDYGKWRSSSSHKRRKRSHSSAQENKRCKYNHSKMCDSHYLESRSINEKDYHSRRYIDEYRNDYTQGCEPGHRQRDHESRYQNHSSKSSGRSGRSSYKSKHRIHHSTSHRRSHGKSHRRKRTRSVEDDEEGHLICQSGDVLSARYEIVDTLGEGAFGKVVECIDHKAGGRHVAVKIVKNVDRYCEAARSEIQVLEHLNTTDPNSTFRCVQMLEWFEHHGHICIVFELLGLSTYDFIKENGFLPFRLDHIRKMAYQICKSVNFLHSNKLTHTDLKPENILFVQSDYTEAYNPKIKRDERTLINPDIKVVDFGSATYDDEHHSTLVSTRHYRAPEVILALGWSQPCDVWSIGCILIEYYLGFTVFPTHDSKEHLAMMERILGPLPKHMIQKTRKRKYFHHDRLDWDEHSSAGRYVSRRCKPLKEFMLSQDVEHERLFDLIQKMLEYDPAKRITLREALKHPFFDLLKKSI
RPS6KA4(Kin.Dom.2-C-terminal), sequence (O75676 411-674): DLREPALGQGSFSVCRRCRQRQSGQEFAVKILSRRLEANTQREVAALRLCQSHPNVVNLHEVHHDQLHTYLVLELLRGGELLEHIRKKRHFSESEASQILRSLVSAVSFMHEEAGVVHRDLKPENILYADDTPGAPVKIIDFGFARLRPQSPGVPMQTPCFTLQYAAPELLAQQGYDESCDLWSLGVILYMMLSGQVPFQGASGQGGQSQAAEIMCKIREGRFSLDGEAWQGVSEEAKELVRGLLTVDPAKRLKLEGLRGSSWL

For `CN(C[C@@H](O)Cc1ccccc1)C(=O)c1cncc(C#Cc2cnn(C(F)F)c2)c1` [Example 2, (S)-5-((1-(difluoromethyl)-1H-pyrazol-4-yl)ethynyl)-N-(2-hydroxy-3-phenylpropyl)-N-methylnicotinamide], the remaining activity at 0.1 µM ([1]; PRKX) was 100%, the remaining activity at 0.1 µM ([2]; PYK2) was 100% and the remaining activity at 0.1 µM ([3]; TNK2) was 100%. The remaining activity at 0.1 µM ([4]; JNK2) was 91%, the remaining activity at 0.1 µM ([5]; WEE2) was 100% and the remaining activity at 0.1 µM ([6]; LOK) was 100%. The remaining activity at 0.1 µM ([7]; MEK5) was 89%, the remaining activity at 0.1 µM ([8]; RIPK1) was 26% and the remaining activity at 0.1 µM ([9]; NDR1) was 100%. It also gave a remaining activity at 0.1 µM ([10]; OSR1) of 88%, a remaining activity at 0.1 µM ([11]; DYRK1B) of 97% and a remaining activity at 0.1 µM ([12]; DYRK2) of 100%. The remaining activity at 0.1 µM ([13]; EGFR(S752-I759del)) was 100%, the remaining activity at 0.1 µM ([14]; PIK3CA(H1047L)) was 85% and the remaining activity at 0.1 µM ([15]; EGFR(G719C)) was 100%. For the same compound, the remaining activity at 0.1 µM ([16]; CLK1) was 100%, the remaining activity at 0.1 µM ([17]; EPHA2) was 100% and the remaining activity at 0.1 µM ([18]; CSNK1A1) was 100%. For the same compound, the remaining activity at 0.1 µM ([19]; DMPK2) was 97%, the remaining activity at 0.1 µM ([20]; WNK4) was 84% and the remaining activity at 0.1 µM ([21]; BMPR2) was 100%. It also gave a remaining activity at 0.1 µM ([22]; YSK4) of 99%, a remaining activity at 0.1 µM ([23]; PIK3CA(C420R)) of 83% and a remaining activity at 0.1 µM ([24]; KIT(V559D,V654A)) of 94%. The remaining activity at 0.1 µM ([25]; RPS6KA4(Kin.Dom.2-C-terminal)) was 97%, the remaining activity at 0.1 µM ([26]; TGFBR2) was 100% and the remaining activity at 0.1 µM ([27]; PLK2) was 98%. It also gave a remaining activity at 0.1 µM ([28]; MET(Y1235D)) of 98%.

`CN(C[C@H](Cc1ccccc1)OP(=O)(O)O)C(=O)c1cncc(C#Cc2cnn(C(F)F)c2)c1` [Example 19, (S)-1-(5-((1-(difluoromethyl)-1H-pyrazol-4-yl)ethynyl)-N-methylnicotinamido)-3-phenylpropan-2-yl dihydrogen phosphate] gave a remaining activity at 0.1 µM [1] of 100%, a remaining activity at 0.1 µM [2] of 100% and a remaining activity at 0.1 µM [3] of 100%. The remaining activity at 0.1 µM [4] was 92%, the remaining activity at 0.1 µM [5] was 100% and the remaining activity at 0.1 µM [6] was 100%. For the same compound, the remaining activity at 0.1 µM [7] was 87%, the remaining activity at 0.1 µM [8] was 91% and the remaining activity at 0.1 µM [9] was 100%. It also gave a remaining activity at 0.1 µM [10] of 89%, a remaining activity at 0.1 µM [11] of 79% and a remaining activity at 0.1 µM [12] of 97%. For the same compound, the remaining activity at 0.1 µM [13] was 100%, the remaining activity at 0.1 µM [14] was 71% and the remaining activity at 0.1 µM [15] was 77%. It also gave a remaining activity at 0.1 µM [16] of 100%, a remaining activity at 0.1 µM [17] of 100% and a remaining activity at 0.1 µM [18] of 92%. It also gave a remaining activity at 0.1 µM [19] of 96%, a remaining activity at 0.1 µM [20] of 81% and a remaining activity at 0.1 µM [21] of 89%. For the same compound, the remaining activity at 0.1 µM [22] was 90%, the remaining activity at 0.1 µM [23] was 86% and the remaining activity at 0.1 µM [24] was 100%. For the same compound, the remaining activity at 0.1 µM [25] was 100%, the remaining activity at 0.1 µM [26] was 100% and the remaining activity at 0.1 µM [27] was 91%. The remaining activity at 0.1 µM [28] was 99%.
